Assay results: PubChem BioAssay (NCI)
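All cell lines were grown in 96-well plates and treated with compound for 48 hours. Abbreviation: GI50, concentration required for 50% inhibition of growth. At the TGI there is no net growth.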

Experiments:
Assay in all cases: inhibition of tumour cell growth, NCI panel, 48 h
SK-OV-3 ovarian = tested on: SK-OV-3 ovarian
SF-268 CNS = tested on: SF-268 CNS
IGROV1 ovarian = tested on: IGROV1 ovarian
HCT-116 colon = tested on: HCT-116 colon
MDA-MB-435 = tested on: MDA-MB-435
HOP-92 NSCLC = tested on: HOP-92 NSCLC
KM12 colon = tested on: KM12 colon
COLO 205 colon = tested on: COLO 205 colon
U251 CNS = tested on: U251 CNS
MOLT-4 leukemia = tested on: MOLT-4 leukemia

Compound | TGI (SK-OV-3 ovarian) [µM] | TGI (SF-268 CNS) [µM] | TGI (IGROV1 ovarian) [µM] | TGI (HCT-116 colon) [µM] | TGI (MDA-MB-435) [µM] | TGI (HOP-92 NSCLC) [µM] | TGI (KM12 colon) [µM] | TGI (COLO 205 colon) [µM] | TGI (U251 CNS) [µM] | TGI (MOLT-4 leukemia) [µM] | GI50 (SK-OV-3 ovarian) [µM] | GI50 (SF-268 CNS) [µM] | GI50 (IGROV1 ovarian) [µM] | GI50 (HCT-116 colon) [µM] | GI50 (MDA-MB-435) [µM] | GI50 (HOP-92 NSCLC) [µM] | GI50 (KM12 colon) [µM] | GI50 (COLO 205 colon) [µM] | GI50 (U251 CNS) [µM] | GI50 (MOLT-4 leukemia) [µM]
CCON=C1C(C)(C)C(C)(C)C(C)(C)C1(C)C | > 100 | > 100 | > 100 | > 100 | > 100 | > 100 | > 100 | > 100 | > 100 | > 100 | – | – | – | – | – | – | – | – | – | –
CCN(CC)CCOc1ccc(Nc2ncc3cc(-c4c(Cl)cccc4Cl)c(=O)n(CCOC)c3n2)cc1 | 7.35 | 1.29 | 0.0983 | 1.16 | 2.5 | 0.322 | 7.64 | 2.43 | 5 | 5.41 | 0.064 | 0.145 | 0.0138 | 0.159 | 0.469 | 0.0163 | 0.655 | 0.148 | 0.608 | 0.781
COc1ccc(Nc2ccnc(NCCNc3ccnc4cc(Cl)ccc34)n2)cc1 | 20.5 | 15.6 | 11 | 3.78 | 2.9 | 6.34 | 15.2 | 3.24 | 5.22 | 16.2 | 7.21 | 3.65 | 1.99 | 0.533 | 1.5 | 1 | 3.72 | 1.45 | 1.69 | 3.46
CCOCC(=O)N[C@H]1CCc2cc(OC)c(OC)c(OC)c2-c2ccc(SC)c(=O)cc21 | 0.398 | > 90.9 | > 100 | 2.39 | < 0.01 | > 100 | < 0.0631 | < 0.01 | > 76.8 | > 62.6 | – | – | – | – | – | – | – | – | – | –
CN(C)C(=S)NN=C(c1ccccn1)c1ccccn1 | 16.7 | > 43.4 | 21.8 | 11 | 16.7 | > 86.6 | 21.6 | 11.8 | > 59.4 | 2.15 | 0.0487 | < 0.0362 | < 0.01 | < 0.01 | 0.076 | – | 0.046 | < 0.01 | < 0.01 | < 0.01
C=C1C(=O)O[C@H]2[C@H]1CC/C(CNS(=O)(=O)c1ccc3ccccc3c1)=C\CC[C@@]1(C)O[C@@H]21 | 30 | 10.1 | 8.2 | 2.12 | 7.37 | 6.34 | 23.8 | 2.69 | 21.1 | 4.71 | 16.3 | 2.72 | 2.87 | 0.879 | 2.35 | 1.89 | 10.8 | 1.16 | 8.29 | 1.56
COC(=O)Nc1nc2ccc(Oc3ccc(NC(=O)Nc4cccc(Br)c4)cc3)cc2[nH]1 | 15.3 | > 25 | 11.8 | > 12.6 | 0.46 | 12.7 | 3.97 | 7 | 5.68 | > 15.4 | 2.95 | 3.98 | 3.69 | 1.32 | 0.0839 | 3.33 | 0.119 | 1.48 | 1.78 | 4.03
CC/C=C\C/C=C\C[C@H](O)C/C=C1/C(=O)C=C[C@H]1C/C=C\CCC(=O)OC | > 8.25 | > 8.25 | > 8.25 | 3.15 | > 8.25 | > 8.25 | > 8.25 | > 8.25 | > 8.25 | > 8.25 | > 8.25 | 3.04 | > 8.25 | 1.55 | 2.35 | > 8.25 | 2.2 | 3.87 | 2.66 | 2.93
O=C1c2ccccc2-c2c1c1ccc([N+](=O)[O-])cc1c(=O)n2CCNCCCNCCn1c2c(c3ccc([N+](=O)[O-])cc3c1=O)C(=O)c1ccccc1-2 | 22.9 | 12.5 | 4.38 | 4.5 | 18.1 | 4.16 | 11.3 | 9.77 | 3.63 | 18.6 | 6.75 | 0.0881 | 0.0249 | 0.129 | 1.39 | 0.803 | 0.172 | 0.433 | 0.166 | 0.005
O=C(Cn1c(=O)c(-c2ccccc2)nc2ccccc21)c1cccnc1 | > 100 | > 100 | > 100 | > 100 | > 100 | > 100 | > 100 | > 100 | > 100 | > 100 | > 100 | > 100 | > 100 | > 100 | > 100 | 27.7 | > 100 | > 100 | > 100 | > 100
COc1ccc(Nc2ncccc2/C=C/C(=O)c2cc(OC)c(OC)c(OC)c2)cc1 | 8.56 | 4.08 | 5.31 | 2.28 | 3.36 | 4.28 | 3.22 | 3.06 | 2.52 | 5.45 | 2.72 | 1.77 | 2 | 1.02 | 1.46 | 1.59 | 1.69 | 1.69 | 1.27 | 2.09
COc1cc([C@@H]2c3cc4c(cc3C(Br)[C@H]3COC(=O)[C@H]23)OCO4)cc(OC)c1OC (stereo partly drawn) | > 100 | > 100 | > 65.9 | 0.784 | – | > 30.1 | 0.438 | 0.399 | > 81.2 | > 100 | 0.312 | 0.399 | 0.291 | 0.207 | 0.0365 | 0.529 | 0.0909 | 0.189 | 0.296 | 0.431
CC(=N\O)/C(C)=N/O.CC(=N\O)/C(C)=N/O.CC(=N\O)/C(C)=N/O.CC(=N\O)/C(C)=N/O.[Cu].[Cu] | 34.5 | 34.6 | 56.2 | 35.6 | 33.7 | 32.8 | 36.4 | 34 | 31.3 | 47.4 | 18.6 | 19.8 | 23.8 | 19.2 | 18.5 | 18.4 | 20.6 | 18.8 | 17.6 | 19.9
